Results taken from ChEMBL document CHEMBL4257451, “Synergism of fused bicyclic 2-aminothiazolyl compounds with polymyxin B against Klebsiella pneumoniae” (Medchemcomm, 2017).
Calls of active or inactive are those of the source. The rule behind the calls is not given here.

Key:
[1] = test system: Pseudomonas aeruginosa; experiment: Synergistic antibacterial activity against Pseudomonas aeruginosa ATCC 27853 in presence of polymixin B by broth microdilution method (reference value: 1 ug/ml); assay type: functional
[2] = test system: Klebsiella pneumoniae; experiment: Synergistic antibacterial activity against Klebsiella pneumoniae SIPI-KPN-1712 assessed as fold reduction in polymixin B MIC at 1 ug/ml by broth microdilution method relative to polymixin B alone; assay type: functional
[3] = test system: Acinetobacter baumannii; experiment: Synergistic antibacterial activity against Acinetobacter baumannii ATCC 19606 assessed as polymixin B MIC at 4 ug/ml by broth microdilution method (reference value: 0.5 ug/ml); assay type: functional; conditions: ATCC 19606 = CIP 70.34 = JCM 6841
[4] = test system: Pseudomonas aeruginosa; experiment: Growth inhibition of Pseudomonas aeruginosa ATCC 27853 by broth microdilution method; assay type: organism-based
[5] = test system: Pseudomonas aeruginosa; experiment: Synergistic antibacterial activity against Pseudomonas aeruginosa isolate 1292 in presence of polymixin B by broth microdilution method (reference value: 2 ug/ml); assay type: functional
[6] = test system: Klebsiella pneumoniae; experiment: Synergistic bactericidal activity against Klebsiella pneumoniae SIPI-KPN-1712 at 4 ug/ml in presence of 2 to 4 ug/ml polymixin B up to 24 hrs by time kill assay; assay type: functional, organism-based
[7] = test system: Klebsiella pneumoniae; experiment: Synergistic antibacterial activity against Klebsiella pneumoniae KPN-2967 in presence of polymixin B by broth microdilution method; assay type: functional
[8] = test system: Klebsiella pneumoniae; experiment: Synergistic antibacterial activity against Klebsiella pneumoniae KPN-2967 assessed as fold reduction in polymixin B MIC by broth microdilution method relative to polymixin B alone; assay type: functional
[9] = test system: Pseudomonas aeruginosa; experiment: Synergistic antibacterial activity against Pseudomonas aeruginosa isolate 1292 assessed as polymixin B MIC at 4 ug/ml by broth microdilution method (reference value: 2 ug/ml); assay type: functional
[10] = test system: Klebsiella pneumoniae; experiment: Synergistic antibacterial activity against Klebsiella pneumoniae SIPI-KPN-1712 assessed as fold reduction in polymixin B MIC at 8 ug/ml by broth microdilution method relative to polymixin B alone; assay type: functional
[11] = test system: Acinetobacter baumannii; experiment: Growth inhibition of Acinetobacter baumannii isolate 2 by broth microdilution method; assay type: organism-based
[12] = test system: Klebsiella pneumoniae; experiment: Synergistic antibacterial activity against Klebsiella pneumoniae SIPI-KPN-1712 assessed as fold reduction in polymixin B MIC at 16 ug/ml by broth microdilution method relative to polymixin B alone; assay type: functional
[13] = test system: Escherichia coli; experiment: Growth inhibition of Escherichia coli ATCC 25922 by broth microdilution method; assay type: organism-based
[14] = test system: Klebsiella pneumoniae; experiment: Synergistic antibacterial activity against Klebsiella pneumoniae SIPI-KPN-1712 assessed as fold reduction in polymixin B MIC at 4 ug/ml by broth microdilution method relative to polymixin B alone; assay type: functional
[15] = test system: Pseudomonas aeruginosa; experiment: Synergistic antibacterial activity against Pseudomonas aeruginosa ATCC 27853 assessed as polymixin B MIC at 4 ug/ml by broth microdilution method (reference value: 1 ug/ml); assay type: functional
[16] = test system: Pseudomonas aeruginosa; experiment: Synergistic antibacterial activity against Pseudomonas aeruginosa isolate 1399 in presence of polymixin B by broth microdilution method (reference value: 1 ug/ml); assay type: functional
[17] = test system: Acinetobacter baumannii; experiment: Synergistic antibacterial activity against Acinetobacter baumannii isolate 1 assessed as polymixin B MIC at 4 ug/ml by broth microdilution method (reference value: 2 ug/ml); assay type: functional
[18] = test system: Escherichia coli; experiment: Synergistic antibacterial activity against Escherichia coli ATCC 25922 in presence of polymixin B by broth microdilution method; assay type: functional
[19] = test system: Klebsiella pneumoniae; experiment: Synergistic bactericidal activity against Klebsiella pneumoniae SIPI-KPN-1712 at 4 ug/ml in presence of 0.5 to 1 ug/ml polymixin B up to 24 hrs by time kill assay; assay type: functional, organism-based
[20] = test system: Klebsiella pneumoniae; experiment: Synergistic antibacterial activity against Klebsiella pneumoniae KPN-2967 assessed as polymixin B MIC at 4 ug/ml by broth microdilution method (reference value: 0.5 ug/ml); assay type: functional
[21] = test system: Pseudomonas aeruginosa; experiment: Synergistic antibacterial activity against Pseudomonas aeruginosa isolate 1399 assessed as polymixin B MIC at 4 ug/ml by broth microdilution method (reference value: 1 ug/ml); assay type: functional
[22] = test system: Klebsiella pneumoniae; experiment: Growth inhibition of Klebsiella pneumoniae KPN-2967 by broth microdilution method; assay type: organism-based; conditions: in vivo
[23] = test system: Pseudomonas aeruginosa; experiment: Growth inhibition of Pseudomonas aeruginosa isolate 1292 by broth microdilution method; assay type: organism-based; conditions: in vivo
[24] = test system: Acinetobacter baumannii; experiment: Growth inhibition of Acinetobacter baumannii isolate 4 by broth microdilution method; assay type: organism-based
[25] = test system: Escherichia coli; experiment: Growth inhibition of Escherichia coli isolate 2944 by broth microdilution method; assay type: organism-based
[26] = test system: Acinetobacter baumannii; experiment: Synergistic antibacterial activity against Acinetobacter baumannii ATCC 19606 in presence of polymixin B by broth microdilution method; assay type: functional, ATCC 19606 = CIP 70.34 = JCM 6841
[27] = test system: Acinetobacter baumannii; experiment: Growth inhibition of Acinetobacter baumannii ATCC 19606 by broth microdilution method; assay type: organism-based, ATCC 19606 = CIP 70.34 = JCM 6841
[28] = test system: Acinetobacter baumannii; experiment: Synergistic antibacterial activity against Acinetobacter baumannii isolate 3 assessed as polymixin B MIC at 4 ug/ml by broth microdilution method (reference value: 0.5 ug/ml); assay type: functional
[29] = test system: Klebsiella pneumoniae; experiment: Bactericidal activity against Klebsiella pneumoniae SIPI-KPN-1712 at 4 ug/ml up to 24 hrs by time kill assay; assay type: ADME, organism-based
[30] = test system: Escherichia coli; experiment: Synergistic antibacterial activity against Escherichia coli isolate 2944 in presence of polymixin B by broth microdilution method (reference value: 0.125 ug/ml); assay type: functional
[31] = test system: Klebsiella pneumoniae; experiment: Synergistic antibacterial activity against Klebsiella pneumoniae SIPI-KPN-1712 assessed as fold reduction in polymixin B MIC at 2 ug/ml by broth microdilution method relative to polymixin B alone; assay type: functional
[32] = test system: Acinetobacter baumannii; experiment: Synergistic antibacterial activity against Acinetobacter baumannii isolate 1 in presence of polymixin B by broth microdilution method; assay type: functional
[33] = test system: Klebsiella pneumoniae; experiment: Synergistic antibacterial activity against Klebsiella pneumoniae KPN-2677 in presence of polymixin B by broth microdilution method; assay type: functional
[34] = test system: Acinetobacter baumannii; experiment: Synergistic antibacterial activity against Acinetobacter baumannii isolate 2 assessed as polymixin B MIC at 4 ug/ml by broth microdilution method (reference value: 1 ug/ml); assay type: functional
[35] = test system: Klebsiella pneumoniae; experiment: Synergistic antibacterial activity against Klebsiella pneumoniae KPN-2677 assessed as polymixin B MIC at 4 ug/ml by broth microdilution method (reference value: 0.5 ug/ml); assay type: functional
[36] = test system: Acinetobacter baumannii; experiment: Growth inhibition of Acinetobacter baumannii isolate 1 by broth microdilution method; assay type: organism-based
[37] = test system: Escherichia coli; experiment: Synergistic antibacterial activity against Escherichia coli isolate 2945 assessed as polymixin B MIC at 4 ug/ml by broth microdilution method (reference value: 0.125 ug/ml); assay type: functional
[38] = test system: Klebsiella pneumoniae; experiment: Growth inhibition of Klebsiella pneumoniae SIPI-KPN-1712 by broth microdilution method; assay type: organism-based; conditions: in vitro
[39] = test system: Acinetobacter baumannii; experiment: Synergistic antibacterial activity against Acinetobacter baumannii isolate 4 in presence of polymixin B by broth microdilution method; assay type: functional
[40] = test system: Escherichia coli; experiment: Synergistic antibacterial activity against Escherichia coli isolate 2944 assessed as polymixin B MIC at 4 ug/ml by broth microdilution method (reference value: 0.125 ug/ml); assay type: functional
[41] = test system: Escherichia coli; experiment: Synergistic antibacterial activity against Escherichia coli isolate 2945 in presence of polymixin B by broth microdilution method (reference value: 0.125 ug/ml); assay type: functional
[42] = test system: Pseudomonas aeruginosa; experiment: Growth inhibition of Pseudomonas aeruginosa isolate 1399 by broth microdilution method; assay type: organism-based; conditions: in vivo
[43] = test system: Klebsiella pneumoniae; experiment: Synergistic antibacterial activity against Klebsiella pneumoniae KPN-2677 assessed as fold reduction in polymixin B MIC by broth microdilution method relative to polymixin B alone; assay type: functional
[44] = test system: Klebsiella pneumoniae; experiment: Synergistic antibacterial activity against Klebsiella pneumoniae SIPI-KPN-1712 assessed as polymixin B MIC at 4 ug/ml by broth microdilution method (reference value: 32 ug/ml); assay type: functional
[45] = test system: Acinetobacter baumannii; experiment: Synergistic antibacterial activity against Acinetobacter baumannii isolate 4 assessed as polymixin B MIC at 4 ug/ml by broth microdilution method (reference value: 0.5 ug/ml); assay type: functional
[46] = test system: Escherichia coli; experiment: Growth inhibition of Escherichia coli isolate 2945 by broth microdilution method; assay type: organism-based
[47] = test system: Acinetobacter baumannii; experiment: Synergistic antibacterial activity against Acinetobacter baumannii isolate 2 in presence of polymixin B by broth microdilution method; assay type: functional
[48] = test system: Klebsiella pneumoniae; experiment: Growth inhibition of Klebsiella pneumoniae KPN-2677 by broth microdilution method; assay type: organism-based
[49] = test system: Acinetobacter baumannii; experiment: Synergistic antibacterial activity against Acinetobacter baumannii isolate 3 in presence of polymixin B by broth microdilution method; assay type: functional
[50] = test system: Acinetobacter baumannii; experiment: Growth inhibition of Acinetobacter baumannii isolate 3 by broth microdilution method; assay type: organism-based
[51] = test system: Klebsiella pneumoniae; experiment: Synergistic antibacterial activity against Klebsiella pneumoniae SIPI-KPN-1712 assessed as fractional Inhibitory concentration index in presence of polymixin B at 2 ug/ml by broth microdilution method; assay type: functional
[52] = test system: Escherichia coli; experiment: Synergistic antibacterial activity against Escherichia coli ATCC 25922 assessed as polymixin B MIC at 4 ug/ml by broth microdilution method (reference value: 0.25 ug/ml); assay type: functional

## OC1CCCc2nc(Nc3ccc(Cl)cc3)sc21 (configuration not stated)
[1]
  fractional inhibitory concentration index (FICI): 1.03
[2]
  fold change (FC): 4
[3]
  MIC: 0.5 µg/mL
[4]
  MIC: > 64 µg/mL
[5]
  fractional inhibitory concentration index (FICI): 1.03
[6]
  Activity: Active
[7]
  fractional inhibitory concentration index (FICI): 0.16
[8]
  fold change (FC): 8
[9]
  MIC: 2 µg/mL
[10]
  fold change (FC): 128
[11]
  MIC: > 64 µg/mL
[12]
  fold change (FC): 128
[13]
  MIC: > 64 µg/mL
[14]
  fold change (FC): 64
[15]
  MIC: 1 µg/mL
[16]
  fractional inhibitory concentration index (FICI): 0.53
[17]
  MIC: 2 µg/mL
[18]
  fractional inhibitory concentration index (FICI): 0.53
[19]
  Activity: inactive
[20]
  MIC: 0.5 µg/mL
[21]
  MIC: 1 µg/mL
[22]
  MIC: > 64 µg/mL
[23]
  MIC: > 64 µg/mL
[24]
  MIC: > 64 µg/mL
[25]
  MIC: > 64 µg/mL
[26]
  fractional inhibitory concentration index (FICI): 0.53
[27]
  MIC: > 64 µg/mL
[28]
  MIC: 0.5 µg/mL
[29]
  Activity: Non-Toxic
[30]
  fractional inhibitory concentration index (FICI): 0.28
[31]
  fold change (FC): 16
[32]
  fractional inhibitory concentration index (FICI): 0.53
[33]
  fractional inhibitory concentration index (FICI): 0.06
[34]
  MIC: 1 µg/mL
[35]
  MIC: 0.5 µg/mL
[36]
  MIC: > 64 µg/mL
[37]
  MIC: 0.125 µg/mL
[38]
  MIC: > 128 µg/mL
[39]
  fractional inhibitory concentration index (FICI): 0.53
[40]
  MIC: 0.125 µg/mL
[41]
  fractional inhibitory concentration index (FICI): 0.28
[42]
  MIC: > 64 µg/mL
[43]
  fold change (FC): 32
[44]
  MIC: 0.5 µg/mL
[45]
  MIC: 0.5 µg/mL
[46]
  MIC: > 64 µg/mL
[47]
  fractional inhibitory concentration index (FICI): 0.28
[48]
  MIC: > 64 µg/mL
[49]
  fractional inhibitory concentration index (FICI): 0.53
[50]
  MIC: > 64 µg/mL
[51]
  fractional inhibitory concentration index (FICI): 0.05
[52]
  MIC: 0.25 µg/mL
